Key:
[1] = molecular target: T1, acetylcholinesterase (AChE) from Electrophorus electricus (electric eel, type VI-S), AChE-pCBMA conjugate by PARIS (Electrophorus electricus, UniProt O42275); assay: Michaelis-Menten kinetics of AChE-catalyzed hydrolysis of acetylthiocholine iodide, PARIS conjugate; type: biochemical; conditions: pH 7.4, 37° C.
T1 construct: purchased Sigma Aldrich (St Louis, Mo.); host or cells: Electrophorus electricus (electric eel)
Experimental: (§1) α-Chymotrypsin (CT) from bovine pancreas (type II), lysozyme from chicken egg white, acetylcholinesterase from Electrophorus electricus (electric eel, type VI-S), uricase from porcine liver (type V), and agarase from Pseudomonas atlantica were purchased from Sigma Aldrich (St Louis, Mo.). Avidin from Gallus gallus egg white was purchased from Lee Biosolutions (Maryland Heights, Mo.). Protein surface active ATRP initiator (NHS-ATRP initiator) was prepared as described elsewhere (Murata et al., supra).
Acetylthiocholine iodide (0-100 μL of 10 mM in 100 mM sodium phosphate buffer (pH 7.4)) and 10 μL of DTNB solution (50 mM in DMSO) were mixed with 100 mM sodium phosphate buffer (980-880 μL, pH 7.4). Conjugate solution (10 μL, 5.5 μM of AChE) was added to the substrate solution. The initial substrate hydrolysis rate was monitored by recording the increase in absorbance at 412 nm using a UV-VIS absorbance spectrometer with a temperature-controlled cell holder at 37° C. Michaelis-Menten parameters were determined by nonlinear curve fitting of initial rate versus substrate concentration plots using Enzfitter software.

[2] = molecular target: T2, Avidin from Gallus gallus egg white, Avi-pCBMA conjugate by PARIS (Gallus gallus, UniProt P02701); assay: Binding affinity of HABA to Avi-pCBMA conjugate, PARIS; conditions: 300 μM HABA
T2 construct: purchased Lee Biosolutions (Maryland Heights, Mo.); host or cells: Gallus gallus egg white
Experimental: as §1
(§2) Absorption at 500 nm of 300 μM HABA solution in phosphate buffered saline without calcium or magnesium (986 μL, Lonza) was measured using UV-VIS spectrometer. 16 μL, of the conjugates solution (1.25 μM of avidin in deionized water) was added to the HABA solution and incubated at room temperature for 1 minute, and then absorption at 500 nm was measured. Change in absorbance at 500 nm was used to determine bound HABA to the conjugate.

[3] = molecular target: Avidin from Gallus gallus egg white, Avi-pCBMA conjugate by solution synthesis (Gallus gallus, UniProt P02701); assay: Binding affinity of HABA to Avi-pCBMA conjugate, solution; conditions: 300 μM HABA, 1 minute, room temperature, [Avi]0 = 2 μM, ε500 = 34000 M^−1
Experimental: as §1, §2

[4] = test system: C[C@H](NC(=O)CCC(=O)O)C(=O)N[C@@H](C)C(=O)N1CCC[C@H]1C(=O)N[C@@H](Cc1ccccc1)C(=O)Nc1ccc([N+](=O)[O-])cc1; assay: purified protein, by the assay type; conditions: other: native CT, pH 8, 25° C.
Experimental: Suc-AAPF-pNA (0-125 μL of 9.60 mM in DMSO) was mixed with sodium phosphate buffer (865-950 μL of 100 mM buffer, pH 8). Native CT or conjugate solutions (10 μL, 3.9 μM of CT) was added to the substrate solution. The initial substrate hydrolysis rate was monitored by recording the increase in absorbance at 412 nm using a UV-VIS absorbance spectrometer with a temperature-controlled cell holder at 25° C. Michaelis-Menten parameters were determined by nonlinear curve fitting of initial rate versus substrate concentration plots using Enzfitter software.

T2 sequence (P02701 25-152): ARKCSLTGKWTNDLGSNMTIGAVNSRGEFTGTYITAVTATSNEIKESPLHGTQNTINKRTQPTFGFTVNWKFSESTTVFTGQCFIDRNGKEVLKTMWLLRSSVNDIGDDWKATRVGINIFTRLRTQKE
T1 sequence (O42275 24-633): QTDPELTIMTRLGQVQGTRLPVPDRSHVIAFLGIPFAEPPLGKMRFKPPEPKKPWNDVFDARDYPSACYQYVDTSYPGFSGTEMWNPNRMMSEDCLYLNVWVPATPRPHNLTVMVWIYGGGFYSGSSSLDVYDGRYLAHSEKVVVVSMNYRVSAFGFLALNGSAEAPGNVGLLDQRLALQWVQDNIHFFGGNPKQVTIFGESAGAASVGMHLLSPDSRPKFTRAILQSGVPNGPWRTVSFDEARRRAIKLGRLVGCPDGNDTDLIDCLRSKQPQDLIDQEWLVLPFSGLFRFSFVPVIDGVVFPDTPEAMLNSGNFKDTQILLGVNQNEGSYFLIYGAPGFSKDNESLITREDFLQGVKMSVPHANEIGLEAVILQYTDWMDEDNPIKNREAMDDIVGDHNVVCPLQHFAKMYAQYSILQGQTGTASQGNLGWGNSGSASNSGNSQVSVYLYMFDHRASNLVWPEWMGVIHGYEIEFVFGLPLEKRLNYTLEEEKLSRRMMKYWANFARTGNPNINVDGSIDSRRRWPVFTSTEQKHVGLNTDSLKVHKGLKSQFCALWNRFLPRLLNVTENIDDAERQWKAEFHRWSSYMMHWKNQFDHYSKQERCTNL
Chain of Avidin from Gallus gallus egg white, Avi-pCBMA conjugate by solution synthesis (P02701 25-152): as the sequence (P02701 25-152) above

Compound: CC(=O)SCC[N+](C)(C)C.[I-] [acetylthiocholine iodide, Acetylthiocholine iodide]
- Ratio of enzymatic efficiency (PARIS:solution) [1]: 1.09 ± 0.08

Compound: O=C(O)c1ccccc1/N=N/c1ccc(O)cc1 [HABA, 4′-hydroxyazobenzene-2-carboxylic acid]
- Ratio of binding affinity of HABA (PARIS:solution) ([2]; Avi-pCBMA, PARIS:solution): 1.01 ± 0.14
- Bound HABA ([2]; PARIS Avi-pCBMA, 1 minute, room temperature, [Avi]0 = 2 μM, ε500 = 34000 M^−1): 0.93 ± 0.13 µM
- Bound HABA [3]: 0.92 ± 0.04 µM

Compound: α-Chymotrypsin (CT) from bovine pancreas (type II), native (Bos taurus)
- Km [4]: 80.3 ± 13.1 µM
- kcat [4]: 34.6 ± 1.4 s⁻¹
- kcat/Km [4]: 431000 ± 72000 M⁻¹ s⁻¹

Reference: patent publication US20200369716A1, “SOLID-PHASE SYNTHESIS OF PROTEIN-POLYMER CONJUGATES ON IMMOBILIZATION SUPPORTS” (Carnegie Mellon University, priority 2017, published 2020)
